From article PMC8550792, “Evolution of kinase polypharmacology across HSP90 drug discovery” (Cell Chemical Biology, 2021)

Key:
Assay in all cases: biochemical
Type in all cases: biochemical
[1] = molecular target: T1, 382 unique human kinases (Homo sapiens, UniProt O00444); details: PLK4/SAK, 10 uM; for remaining activity at 10 µM: read-out: % Enzyme Activity (relative to DMSO controls)
T1 construct: purchased Reaction Biology (HotSpot contract assay)
T1 sequence (O00444 1-970): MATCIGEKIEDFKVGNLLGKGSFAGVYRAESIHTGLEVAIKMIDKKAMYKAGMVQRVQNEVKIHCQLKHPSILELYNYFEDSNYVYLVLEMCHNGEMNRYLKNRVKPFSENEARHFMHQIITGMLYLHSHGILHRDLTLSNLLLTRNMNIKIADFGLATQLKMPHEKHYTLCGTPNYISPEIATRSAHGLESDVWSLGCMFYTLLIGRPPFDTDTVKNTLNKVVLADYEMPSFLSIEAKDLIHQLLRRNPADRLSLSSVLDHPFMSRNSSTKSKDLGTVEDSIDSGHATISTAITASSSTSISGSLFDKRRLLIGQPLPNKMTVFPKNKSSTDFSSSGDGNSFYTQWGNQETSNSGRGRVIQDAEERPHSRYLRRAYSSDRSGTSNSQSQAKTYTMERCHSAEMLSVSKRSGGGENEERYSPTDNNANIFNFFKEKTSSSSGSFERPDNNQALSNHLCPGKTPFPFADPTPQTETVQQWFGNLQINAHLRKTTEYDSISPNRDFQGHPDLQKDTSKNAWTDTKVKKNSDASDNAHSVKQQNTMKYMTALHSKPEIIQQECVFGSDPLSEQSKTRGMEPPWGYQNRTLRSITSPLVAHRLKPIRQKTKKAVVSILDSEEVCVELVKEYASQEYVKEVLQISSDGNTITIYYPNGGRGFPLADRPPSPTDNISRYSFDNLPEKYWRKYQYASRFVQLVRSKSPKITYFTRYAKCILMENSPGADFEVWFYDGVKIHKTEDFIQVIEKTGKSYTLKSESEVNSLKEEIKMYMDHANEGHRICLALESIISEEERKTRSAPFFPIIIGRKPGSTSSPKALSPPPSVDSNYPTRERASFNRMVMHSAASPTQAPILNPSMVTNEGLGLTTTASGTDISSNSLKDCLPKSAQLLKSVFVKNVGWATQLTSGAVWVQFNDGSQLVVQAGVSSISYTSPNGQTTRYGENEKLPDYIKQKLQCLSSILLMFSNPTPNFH

[2] = molecular target: T2, 382 unique human kinases (Homo sapiens, UniProt O14757); details: CHK1, 10 uM; for remaining activity at 10 µM: read-out: % Enzyme Activity (relative to DMSO controls)
T2 construct: purchased Reaction Biology (HotSpot contract assay)
T2 sequence (O14757 1-476): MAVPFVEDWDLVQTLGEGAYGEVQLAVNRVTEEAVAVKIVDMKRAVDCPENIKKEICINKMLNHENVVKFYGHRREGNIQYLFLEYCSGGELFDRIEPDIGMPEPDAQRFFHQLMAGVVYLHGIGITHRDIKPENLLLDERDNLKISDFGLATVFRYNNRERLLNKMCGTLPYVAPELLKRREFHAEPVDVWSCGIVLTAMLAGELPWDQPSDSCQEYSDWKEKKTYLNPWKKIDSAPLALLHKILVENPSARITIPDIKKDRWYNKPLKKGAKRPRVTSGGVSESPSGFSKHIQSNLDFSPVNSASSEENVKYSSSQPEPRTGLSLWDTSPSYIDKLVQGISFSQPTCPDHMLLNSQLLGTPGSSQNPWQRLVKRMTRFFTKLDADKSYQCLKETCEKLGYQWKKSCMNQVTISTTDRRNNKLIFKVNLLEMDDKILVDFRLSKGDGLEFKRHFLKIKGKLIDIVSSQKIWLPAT

[3] = molecular target: T3, 382 unique human kinases (Homo sapiens, UniProt Q96BR1); details: SGK3/SGKL, 10 uM; for remaining activity at 10 µM: read-out: % Enzyme Activity (relative to DMSO controls)
T3 construct: purchased Reaction Biology (HotSpot contract assay)
T3 sequence (Q96BR1 1-496): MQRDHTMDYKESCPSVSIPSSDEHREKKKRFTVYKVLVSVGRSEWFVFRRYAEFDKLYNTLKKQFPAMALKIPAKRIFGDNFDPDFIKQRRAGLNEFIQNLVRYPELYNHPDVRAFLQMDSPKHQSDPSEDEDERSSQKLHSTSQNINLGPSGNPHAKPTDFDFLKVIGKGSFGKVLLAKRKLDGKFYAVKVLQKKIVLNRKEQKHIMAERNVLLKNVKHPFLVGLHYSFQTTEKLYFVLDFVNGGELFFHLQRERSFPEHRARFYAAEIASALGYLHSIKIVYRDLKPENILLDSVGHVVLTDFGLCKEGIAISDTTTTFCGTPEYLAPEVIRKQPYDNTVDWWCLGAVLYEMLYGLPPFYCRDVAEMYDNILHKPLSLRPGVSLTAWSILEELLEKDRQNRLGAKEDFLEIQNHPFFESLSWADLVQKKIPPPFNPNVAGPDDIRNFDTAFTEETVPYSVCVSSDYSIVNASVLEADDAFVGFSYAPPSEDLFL

[4] = molecular target: T4, 382 unique human kinases (Homo sapiens, UniProt P42681); details: TXK, [ATP] 30 µM, compound 10 uM; for remaining activity at 10 µM: read-out: % Enzyme Activity (relative to DMSO controls)
T4 construct: purchased Reaction Biology (HotSpot contract assay)
T4 sequence (P42681 1-527): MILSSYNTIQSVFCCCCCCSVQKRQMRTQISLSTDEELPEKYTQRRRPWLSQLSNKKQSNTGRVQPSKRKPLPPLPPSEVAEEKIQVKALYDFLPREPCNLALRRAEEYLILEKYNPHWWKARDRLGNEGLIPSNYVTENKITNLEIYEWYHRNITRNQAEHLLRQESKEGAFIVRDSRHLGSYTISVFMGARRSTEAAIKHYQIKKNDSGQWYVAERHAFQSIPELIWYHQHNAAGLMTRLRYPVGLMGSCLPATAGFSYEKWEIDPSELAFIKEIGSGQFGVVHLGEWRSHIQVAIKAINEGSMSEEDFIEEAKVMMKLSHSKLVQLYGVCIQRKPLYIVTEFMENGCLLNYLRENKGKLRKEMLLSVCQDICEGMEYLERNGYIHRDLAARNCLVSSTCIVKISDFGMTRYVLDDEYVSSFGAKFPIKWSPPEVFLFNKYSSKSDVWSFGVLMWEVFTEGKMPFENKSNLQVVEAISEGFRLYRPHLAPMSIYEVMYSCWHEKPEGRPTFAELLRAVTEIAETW

Row | SMILES | remaining activity at 10 µM [1] | remaining activity at 10 µM [2] | remaining activity at 10 µM [3] | remaining activity at 10 µM [4] | % Enzyme Activity (relative to DMSO controls) [3] | % Enzyme Activity (relative to DMSO controls) [4] | % Enzyme Activity (relative to DMSO controls) [1] | % Enzyme Activity (relative to DMSO controls) [2]
1 | CC(C)c1cc(-c2n[nH]c(=O)n2-c2ccc3c(ccn3C)c2)c(O)cc1O [Ganetespib (STA9090)] | 78.2% | 74.7% |  |  |  |  |  | 
2 | CC(C)c1cc(-c2n[nH]c(=O)n2-c2ccc3c(ccn3C)c2)c(O)cc1O [Ganetespib] |  |  | 101% | 21.4% |  |  |  | 
3 | CCNC(=O)c1noc(-c2cc(C(C)C)c(O)cc2O)c1-c1ccc(CN2CCOCC2)cc1 [Luminespib] |  |  | 106% | 88.1% | 105.88% | 87.82% |  | 
4 | CCNC(=O)c1noc(-c2cc(C(C)C)c(O)cc2O)c1-c1ccc(CN2CCOCC2)cc1 [Luminespib (AUY-922)] | 89.6% | 106% |  |  |  |  | 86.84% | 105.20%
